Experimental data taken from ChEMBL document CHEMBL4507319 (2021).

How the values were obtained:
Conditions in all cases: Compound concentration 1.0 uM
[1] = target: Calcium/calmodulin-dependent protein kinase type 1D (Homo sapiens) (UniProt Q8IU85); experiment: CaMKIdelta(h) Eurofins kinase panel
[2] = target: Serine/threonine-protein kinase PAK 3 (Homo sapiens) (UniProt O75914); experiment: PAK3(h) Eurofins kinase panel
[3] = target: T1, MAP/microtubule affinity-regulating kinase 4 (Homo sapiens) (UniProt Q96L34); experiment: MARK4(h) Eurofins kinase panel
T1 sequence (whole entry): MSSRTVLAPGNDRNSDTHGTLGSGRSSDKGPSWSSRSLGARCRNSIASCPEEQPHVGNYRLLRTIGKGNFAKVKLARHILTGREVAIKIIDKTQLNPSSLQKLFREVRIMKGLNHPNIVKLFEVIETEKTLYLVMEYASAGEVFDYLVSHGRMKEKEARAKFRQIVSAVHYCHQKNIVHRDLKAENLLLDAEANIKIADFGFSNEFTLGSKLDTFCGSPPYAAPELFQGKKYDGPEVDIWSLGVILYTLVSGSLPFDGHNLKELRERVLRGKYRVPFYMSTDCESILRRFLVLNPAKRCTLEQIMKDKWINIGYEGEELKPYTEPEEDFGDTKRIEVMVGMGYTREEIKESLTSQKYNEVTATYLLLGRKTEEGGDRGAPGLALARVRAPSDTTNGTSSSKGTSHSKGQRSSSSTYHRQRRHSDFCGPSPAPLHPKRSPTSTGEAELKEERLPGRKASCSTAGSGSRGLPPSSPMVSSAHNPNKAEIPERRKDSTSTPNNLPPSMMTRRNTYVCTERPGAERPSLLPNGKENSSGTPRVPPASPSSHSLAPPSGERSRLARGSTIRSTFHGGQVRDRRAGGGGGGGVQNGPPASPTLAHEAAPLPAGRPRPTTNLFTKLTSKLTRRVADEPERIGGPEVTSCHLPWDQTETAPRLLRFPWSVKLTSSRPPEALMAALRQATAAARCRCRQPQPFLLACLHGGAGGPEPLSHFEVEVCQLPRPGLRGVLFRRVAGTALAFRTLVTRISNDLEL

[4] = target: T2, Tyrosine-protein kinase Tec (Homo sapiens) (UniProt P42680); experiment: Tec(h) activated Eurofins kinase panel
T2 sequence (whole entry): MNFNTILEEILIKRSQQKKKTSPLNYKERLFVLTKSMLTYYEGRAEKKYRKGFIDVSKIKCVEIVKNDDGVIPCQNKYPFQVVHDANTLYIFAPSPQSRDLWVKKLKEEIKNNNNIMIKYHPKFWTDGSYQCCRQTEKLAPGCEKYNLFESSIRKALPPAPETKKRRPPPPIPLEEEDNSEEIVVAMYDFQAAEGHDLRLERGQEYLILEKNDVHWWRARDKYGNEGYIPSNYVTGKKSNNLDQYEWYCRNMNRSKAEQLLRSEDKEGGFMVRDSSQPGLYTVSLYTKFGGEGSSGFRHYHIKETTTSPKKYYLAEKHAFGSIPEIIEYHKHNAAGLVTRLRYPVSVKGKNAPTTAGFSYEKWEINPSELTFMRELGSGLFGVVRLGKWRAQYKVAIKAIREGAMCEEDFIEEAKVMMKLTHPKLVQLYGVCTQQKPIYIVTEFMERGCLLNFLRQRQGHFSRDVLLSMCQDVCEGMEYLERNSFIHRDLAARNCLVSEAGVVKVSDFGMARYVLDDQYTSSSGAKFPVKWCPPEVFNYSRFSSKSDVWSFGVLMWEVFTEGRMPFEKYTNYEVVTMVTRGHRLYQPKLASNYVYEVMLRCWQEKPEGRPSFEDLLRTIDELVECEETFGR

[5] = target: [Pyruvate dehydrogenase (acetyl-transferring)] kinase isozyme 4, mitochondrial (Homo sapiens) (UniProt Q16654); experiment: PDHK4(h) Eurofins kinase panel
[6] = target: T3, TGF-beta receptor type-1 (Homo sapiens) (UniProt P36897); experiment: TGFBR1(h) Eurofins kinase panel
T3 sequence (whole entry): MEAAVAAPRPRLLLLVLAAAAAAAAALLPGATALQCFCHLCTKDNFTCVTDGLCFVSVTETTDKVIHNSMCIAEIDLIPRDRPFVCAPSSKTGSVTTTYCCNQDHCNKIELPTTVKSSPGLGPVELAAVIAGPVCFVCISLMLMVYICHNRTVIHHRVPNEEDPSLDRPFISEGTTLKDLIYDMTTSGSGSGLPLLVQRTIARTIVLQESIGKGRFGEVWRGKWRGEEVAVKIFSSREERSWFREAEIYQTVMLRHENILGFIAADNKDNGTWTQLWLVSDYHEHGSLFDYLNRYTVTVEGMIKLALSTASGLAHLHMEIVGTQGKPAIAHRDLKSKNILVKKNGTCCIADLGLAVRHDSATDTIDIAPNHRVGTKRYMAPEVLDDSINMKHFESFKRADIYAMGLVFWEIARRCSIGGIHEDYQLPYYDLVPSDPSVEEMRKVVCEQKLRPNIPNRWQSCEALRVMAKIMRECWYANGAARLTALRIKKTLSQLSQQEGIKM

[7] = target: Cyclin-dependent kinase 2/cyclin A (Homo sapiens) (UniProt P24941+P20248+P78396); experiment: CDK2/cyclinA(h) Eurofins kinase panel; type: protein-complex assay
[8] = target: Fibroblast growth factor receptor 2 (Homo sapiens) (UniProt P21802); experiment: FGFR2(h) Eurofins kinase panel

Measured: % residual kinase activity

Sequence of Fibroblast growth factor receptor 2 (Homo sapiens) (P21802 22-821 limits assumed): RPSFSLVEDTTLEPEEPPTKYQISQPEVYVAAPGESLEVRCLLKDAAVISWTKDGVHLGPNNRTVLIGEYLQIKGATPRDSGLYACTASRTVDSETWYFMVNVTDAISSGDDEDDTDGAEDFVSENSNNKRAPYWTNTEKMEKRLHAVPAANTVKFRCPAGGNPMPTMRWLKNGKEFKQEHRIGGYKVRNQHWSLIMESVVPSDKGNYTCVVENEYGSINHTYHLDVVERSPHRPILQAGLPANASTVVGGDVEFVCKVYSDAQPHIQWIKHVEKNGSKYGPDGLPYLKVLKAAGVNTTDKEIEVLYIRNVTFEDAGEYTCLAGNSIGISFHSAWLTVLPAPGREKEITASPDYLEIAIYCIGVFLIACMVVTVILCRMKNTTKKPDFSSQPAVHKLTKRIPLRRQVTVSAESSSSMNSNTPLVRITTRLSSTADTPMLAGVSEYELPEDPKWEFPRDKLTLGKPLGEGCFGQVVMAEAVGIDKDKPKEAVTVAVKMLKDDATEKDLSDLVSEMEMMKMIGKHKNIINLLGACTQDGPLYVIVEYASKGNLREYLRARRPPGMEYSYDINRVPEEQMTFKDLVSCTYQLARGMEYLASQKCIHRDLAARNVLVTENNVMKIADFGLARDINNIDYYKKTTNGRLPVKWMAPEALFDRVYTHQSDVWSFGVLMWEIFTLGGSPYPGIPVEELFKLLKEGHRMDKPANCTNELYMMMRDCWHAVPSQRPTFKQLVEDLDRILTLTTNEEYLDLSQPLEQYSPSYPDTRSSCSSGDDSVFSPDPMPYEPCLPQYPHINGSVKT
Sequence of Calcium/calmodulin-dependent protein kinase type 1D (Homo sapiens) (Q8IU85 whole entry, looked up): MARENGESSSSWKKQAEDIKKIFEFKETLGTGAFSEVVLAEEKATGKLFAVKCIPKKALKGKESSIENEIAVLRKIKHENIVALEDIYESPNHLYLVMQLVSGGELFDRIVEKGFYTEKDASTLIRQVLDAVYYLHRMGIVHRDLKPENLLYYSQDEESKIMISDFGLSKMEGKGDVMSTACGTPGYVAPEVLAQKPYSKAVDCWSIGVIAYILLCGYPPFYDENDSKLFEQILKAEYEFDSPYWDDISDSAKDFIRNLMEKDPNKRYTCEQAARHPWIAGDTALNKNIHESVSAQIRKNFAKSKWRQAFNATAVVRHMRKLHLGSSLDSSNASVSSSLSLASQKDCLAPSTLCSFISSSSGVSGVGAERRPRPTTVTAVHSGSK
Sequence of Serine/threonine-protein kinase PAK 3 (Homo sapiens) (O75914 whole entry, looked up): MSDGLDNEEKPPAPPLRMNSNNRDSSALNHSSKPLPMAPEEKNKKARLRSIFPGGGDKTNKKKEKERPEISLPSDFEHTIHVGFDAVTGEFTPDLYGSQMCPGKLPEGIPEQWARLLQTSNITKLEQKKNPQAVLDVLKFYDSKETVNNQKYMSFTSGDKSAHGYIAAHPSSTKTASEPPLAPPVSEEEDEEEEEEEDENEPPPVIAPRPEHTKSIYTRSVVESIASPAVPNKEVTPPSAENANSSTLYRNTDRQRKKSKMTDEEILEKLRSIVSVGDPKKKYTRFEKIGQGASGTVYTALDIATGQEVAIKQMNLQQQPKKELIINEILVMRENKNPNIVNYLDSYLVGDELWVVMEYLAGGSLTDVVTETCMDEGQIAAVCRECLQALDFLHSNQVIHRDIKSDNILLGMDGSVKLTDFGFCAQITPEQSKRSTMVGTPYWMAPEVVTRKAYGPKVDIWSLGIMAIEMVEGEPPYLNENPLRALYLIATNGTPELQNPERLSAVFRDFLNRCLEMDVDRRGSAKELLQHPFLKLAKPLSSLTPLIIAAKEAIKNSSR
Sequence of [Pyruvate dehydrogenase (acetyl-transferring)] kinase isozyme 4, mitochondrial (Homo sapiens) (Q16654 whole entry, looked up): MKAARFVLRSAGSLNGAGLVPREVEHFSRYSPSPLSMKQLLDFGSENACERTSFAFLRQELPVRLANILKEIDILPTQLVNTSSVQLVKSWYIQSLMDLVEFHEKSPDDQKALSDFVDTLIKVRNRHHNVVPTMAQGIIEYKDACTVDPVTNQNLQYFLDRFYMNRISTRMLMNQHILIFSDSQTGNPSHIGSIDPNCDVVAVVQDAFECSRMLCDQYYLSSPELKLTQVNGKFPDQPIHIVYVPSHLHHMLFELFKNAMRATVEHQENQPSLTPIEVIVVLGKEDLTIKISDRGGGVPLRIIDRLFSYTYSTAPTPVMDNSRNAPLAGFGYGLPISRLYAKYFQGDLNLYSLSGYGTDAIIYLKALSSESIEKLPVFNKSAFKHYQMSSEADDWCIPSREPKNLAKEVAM

CCc1ccccc1C(=O)Nc1n[nH]c2c(C)c(F)c(C3C(C#N)=C(C)N(C)C(C)=C3C#N)cc12 [BAY-3827]
inactive: [1] 104% | [2] 100% | [3] 65% | [4] 100% | [5] 101% | [6] 99% | [7] 100% | [8] 58%
